Measurements as given in patent US12648975B2, “Lactobacillus plantarum against Helicobacter pylori infection, and use thereof” (WECARE PROBIOTICS CO., LTD., priority 2021, dated 2026).

Columns and labels:
Helicobacter pylori [1] = assay: Inhibition zone experiment (Oxford cup method) of health care product, Example 9; format: cell-based; settings: 100 μL sample
Description: The health care product for inhibiting Helicobacter pylori infection was prepared into a suspension (a density of Lactobacillus plantarum Lp05 was 10^9 CFU/mL) with water, 100 μL suspension was taken and coated onto a surface of a punctured Colombian blood agar medium (a volume of the medium was 20 mL) containing 5% sheep blood without an antibiotic, and any one of the following groups of liquids was added separately to form different experimental groups: 100 μL suspension of the health care product to be tested, 100 μL positive control (a metronidazole solution having a mass concentration of 0.025%), 100 μL negative control (a PBS buffer) and a blank control (100 μL MRS liquid medium). Effects of inhibiting the growth of Helicobacter pylori at 48 h and 72 h were determined through an Oxford cup method.

Helicobacter pylori [2] = assay: Inhibition zone experiment (Oxford cup method), Example 6; format: cell-based; settings: 100 μL sample
Description: In this example, an inhibitory effect of the Lactobacillus plantarum in Example 3 on the growth of Helicobacter pylori was verified. Steps are described below. • (1) Helicobacter pylori at −80° C. was taken out, coated on a Columbia blood agar medium containing 5% sheep blood (v/v) for activation and culture and cultured in a microaerobic environment for 48 h at 37° C. • (2) The Lactobacillus plantarum was inoculated in an MRS liquid medium and cultured for 18 h at 37° C. for activation two consecutive times to obtain an activation solution. The activation solution was inoculated in an MRS liquid medium at an inoculum volume of 2% (v/v) and cultured for 18 h at 37° C. to obtain a bacterial solution. The bacterial solution was centrifuged at 8000 g for 10 min, and supernatant was taken and passed through a 0.22 μm sterile filtration membrane to obtain supernatant of the Lactobacillus plantarum. […] Effects of inhibiting the growth of Helicobacter pylori at 48 h and 72 h by the Lactobacillus plantarum were determined through the Oxford cup method.

SMILES: Cc1ncc([N+](=O)[O-])n1CCO [Positive control, metronidazole]
- Diameter of Inhibition Zone at 48 h (mm) (Helicobacter pylori [1]; 48 h of culture): 9.3 ± 2.5 mm
- Diameter of Inhibition Zone at 72 h (mm) (Helicobacter pylori [1]; 72 h of culture): 9.8 ± 2.5 mm
- Diameter of Inhibition Zone at 48 h (mm) (Helicobacter pylori [2]; 48 h of culture): 11.2 ± 2.3 mm
- Diameter of Inhibition Zone at 72 h (mm) (Helicobacter pylori [2]; 72 h of culture): 12.4 ± 3.1 mm
